Experimental data reported in patent publication US20230145764A1, “BLOOD-BASED TUMOR MUTATION BURDEN PREDICTS OVERALL SURVIVAL IN NSCLC” (MEDIMMUNE, LLC, priority 2018, published 2023).

Experiments:
metastatic NSCLC [1] = experiment: MYSTIC phase 3 study, efficacy (OS, PFS, tumor response) in ITT population and PD-L1 expression subgroups; type: in vivo, human; conditions: for ORR, %: BICR per RECIST v1.1
Excerpt: Adult patients with Stage IV NSCLC were eligible provided they had not previously received systemic therapy for advanced/metastatic NSCLC, had Eastern Cooperative Oncology Group performance status 0-1, measurable disease according to Response Evaluation Criteria in Solid Tumors version 1.1 (RECIST v1.1) (Chaft et al., Cancer Res. 78(13 Suppl) (abstr. CT113) (2018)), and known tumor PD-L1 expression status prior to randomization. Patients with sensitizing EGFR mutations or ALK rearrangements, and those with symptomatic, unstable brain metastases were excluded.
(§1) Patients continued treatment until objective disease progression (according to RECIST v1.1), development of an adverse event (AE) that necessitated treatment discontinuation, or withdrawal of consent.
Investigation of the relationship between biomarkers, including TMB, and clinical outcomes were also determined.
PD-L1 expression was evaluated using multiple cut-offs at a central laboratory using the VENTANA PD-L1 (SP263) immunohistochemistry (IHC) assay (Ventana Medical Systems, Tucson, Ariz., USA) (Rebelatto et al., Diagn. Pathol. 11(1): 95 (2016)). Tumor samples obtained within 3 months prior to screening were permitted.
(§2) Tumor response was assessed by BICR using RECIST v1.1, with imaging performed every 6 weeks for the first 48 weeks, then every 8 weeks, until confirmed disease progression. Patients were followed for survival. AEs were graded according to National Cancer Institute Common Terminology Criteria for Adverse Events version 4.03.
(§3) Efficacy was analyzed on an intention-to-treat (ITT) basis, including all randomized patients or subsets of this population based on PD-L1 expression or TMB levels. Safety analyses included all patients who received at least one dose of study treatment (as-treated population).
To control the type I error at 5% (two-sided), a hierarchical multiple testing procedure with gatekeeping strategy was used across endpoints, analysis populations, and treatment regimens. The primary PFS analysis was performed using a stratified log-rank test adjusting for histology, with hazard ratio (HR) and 99.5% confidence interval (CI) estimated using a Cox proportional hazards model. […] Survival curves were generated using the Kaplan-Meier method.
(§4) Odds ratios and 95% CI for comparing ORR between treatment groups were calculated using a logistic regression model, adjusted for the same factors as PFS and OS. Prespecified TMB analysis was performed using an unstratified log-rank test, with HRs and 95% Cis estimated using a Cox proportional hazards model.

metastatic NSCLC [2] = experiment: MYSTIC phase 3 study, efficacy by blood TMB (GuardantOMNI) or tissue TMB (FoundationOne) subgroup; type: in vivo, human
Experimental: as §1
Blood TMB was evaluated using the GuardantOMNI next-generation sequencing platform (Guardant Health, Redwood City, Calif., USA) comprised of 500 genes (FIG. 1).
The OMNI TMB algorithm incorporates somatic single nucleotide variants (SNVs), short insertions/deletions (indels), copy number amplifications and fusions, and is optimized to calculate TMB on blood samples with low cell-free circulating tumor DNA content (Merck Sharp & Dohme. Keytruda® (pembrolizumab) Summary of Product Characteristics. Updated March 2019. Available at: https://www.medicines.org.uk/emc/product/6947/smpc (last accessed May 1, 2019); Reck et al., N. Engl. J. Med. 375(19): 1823-33 (2016)). Both synonymous and nonsynonymous SNVs and indels were included, with removal of those with low shedding values, low diversity, and associations with clonal hematopoiesis, germline and oncogenic driver or drug resistance mechanisms. Tissue TMB was evaluated using the FoundationOne tissue next-generation sequencing platform (Foundation Medicine, Cambridge, Mass., USA). The algorithm has been described previously (Merck Sharp & Dohme. Keytruda® (pembrolizumab) prescribing information. Updated April 2019. Available at: https://www.merck.com/product/usa/pi_circulars/k/keytruda/keytruda_pi.pdf (last accessed May 1, 2019)).
as §3, §4

[3] = MYSTIC phase 3 study, safety (adverse events, as-treated population); conditions: in vivo
Experimental: as §1, §2, §3

mNSCLC = experiment: MYSTIC ctDNA mutation analysis (STK11, KEAP1, ARID1A), overall survival by mutation status; type: in vivo, human
Experimental: This example investigated associations between selected mutations and survival outcomes. Circulating tumour DNA from baseline plasma specimens was profiled using the GuardantOMNI platform. Samples were available from 1003 patients (89.7% of ITT population). 943 samples were mutation-evaluable. Survival outcomes were analysed in patients with or without non-synonymous somatic mutations in STK11, KEAP1, or ARID1A, or KRAS.

PD-L1 = PD-L1 (Homo sapiens, UniProt Q9NZQ7); conditions: in vitro; cited from earlier work
PD-L1, sequence (Q9NZQ7 19-290): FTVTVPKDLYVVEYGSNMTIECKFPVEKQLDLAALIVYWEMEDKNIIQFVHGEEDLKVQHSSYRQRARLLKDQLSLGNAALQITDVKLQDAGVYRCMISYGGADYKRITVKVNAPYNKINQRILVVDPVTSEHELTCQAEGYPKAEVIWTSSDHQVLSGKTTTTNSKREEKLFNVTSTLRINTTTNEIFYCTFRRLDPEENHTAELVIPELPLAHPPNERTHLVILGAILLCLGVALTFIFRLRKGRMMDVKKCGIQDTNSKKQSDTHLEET

xenograft model = conditions: via a T-cell dependent mechanism; cited from earlier work
human CTLA-4 = biological target: T1, human CTLA-4 (Homo sapiens, UniProt P16410); conditions: specific for human CTLA-4; cited from earlier work
T1 sequence (P16410 36-223): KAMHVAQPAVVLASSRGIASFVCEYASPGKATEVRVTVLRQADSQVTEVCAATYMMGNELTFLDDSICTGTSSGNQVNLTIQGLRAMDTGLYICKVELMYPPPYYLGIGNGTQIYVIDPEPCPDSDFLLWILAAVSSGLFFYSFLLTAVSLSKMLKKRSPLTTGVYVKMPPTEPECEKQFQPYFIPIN

Fc receptors = conditions: cited from earlier work
[4] = tested on: natural killer (NK) ADCC activity; conditions: cited from earlier work

## durvalumab
Metastatic NSCLC [1]; ITT population
  Hazard ratio (95% CI) for death compared with chemotherapy: 0.96
  Median overall survival, months (95% CI): 12.3 months
Metastatic NSCLC [1]; PD-L1 TC <1%
  Hazard ratio (95% CI) for death compared with chemotherapy: 1.18
  Median overall survival, months (95% CI): 10.1 months
Metastatic NSCLC [1]; PD-L1 TC ≥1%
  Hazard ratio (95% CI) for death compared with chemotherapy: 0.88
  Median overall survival, months (95% CI): 14.6 months
Metastatic NSCLC [1]; PD-L1 TC ≥25%
  24-month OS rate: 38.3%
  Best objective response, Complete response, %: (0.6) %
  Best objective response, Not evaluable, %: (1.2) %
  Best objective response, Partial response, %: (35.0) %
  Best objective response, Progressive disease, %: (32.5) %
  Best objective response, Stable disease ≥ 6 weeks, %: (30.7) %
  HR for death vs. chemotherapy: 0.76
  Remaining in response (%) at 6 months: 66.9%
  Remaining in response (%) at 12 months: 61.3%
  difference in PFS versus chemotherapy group: no statistically significant difference
  ORR, %: 35.6%
Metastatic NSCLC [1]; PD-L1 TC ≥25% (primary analysis population)
  median OS: 16.3 months
Metastatic NSCLC [1]; PD-L1 TC ≥25%, listed as Durvalumab Monotherapy
  ORR, %: (35.6) %
Metastatic NSCLC [1]; PD-L1 TC ≥25%, Kaplan-Meier, NR = not reached
  Median DOR, months (95% CI): NR (9.7-NR)
Metastatic NSCLC [1]; PD-L1 TC ≥25-49%
  Hazard ratio (95% CI) for death compared with chemotherapy: 0.78
  Median overall survival, months (95% CI): 11.1 months
Metastatic NSCLC [1]; PD-L1 TC ≥50%
  Hazard ratio (95% CI) for death compared with chemotherapy: 0.76
  Median overall survival, months (95% CI): 18.3 months
Metastatic NSCLC [1]; in vivo
  Estimated odds ratio vs. chemotherapy (95% CI): 0.91
Metastatic NSCLC [1]; overall survival, ITT population
  Number of events/patients: 278/374
Metastatic NSCLC [1]; overall survival, PD-L1 TC <1%
  Number of patients: 84/95
Metastatic NSCLC [1]; overall survival, PD-L1 TC ≥1%
  Number of patients: 194/279
Metastatic NSCLC [1]; overall survival, PD-L1 TC ≥25-49%
  Number of patients: 33/45
Metastatic NSCLC [1]; overall survival, PD-L1 TC ≥50%
  Number of patients: 75/118
Metastatic NSCLC [2]; Blood TMB <20 mut/Mb
  ORR, %: (20.6) %
  Remaining in response (%) at 6 months: 64.0%
  Remaining in response (%) at 12 months: 59.1%
Metastatic NSCLC [2]; Blood TMB ≥20 mut/Mb
  ORR, %: (29.9) %
  Remaining in response (%) at 6 months: 86.5%
  Remaining in response (%) at 12 months: 80.3%
Metastatic NSCLC [2]; Tissue TMB ≥10 mut/Mb
  HR for death versus chemotherapy: 0.70
  median OS: 18.6 months
Metastatic NSCLC [2]; bTMB ≥20 mut/Mb
  median OS: 12.6 months
  unadjusted HR for death vs. chemotherapy: 0.72
[3]
  All-grade treatment-related AEs (TRAEs), % of patients: 54.2%
  Immune-mediated AEs of grade 3 or 4, % of patients: 4.1%
  Immune-mediated AEs, % of patients: 13.6%
  Rates of grade ≥3 TRAEs: 14.9%
  TRAEs leading to discontinuation: 5.4%
  Treatment-related deaths, %: 0.5%
  Treatment-related deaths, patients: 2 patients
mNSCLC; patients with ARID1Am
  median OS (mOS): 8.6 months
mNSCLC; patients with ARID1Awt
  median OS (mOS): 13.7 months
mNSCLC; patients with KEAP1m
  median OS (mOS): 7.6 months
mNSCLC; patients with KEAP1wt
  median OS (mOS): 14.6 months
mNSCLC; patients with STK11m
  median OS (mOS): 10.3 months
mNSCLC; patients with STK11wt
  median OS (mOS): 13.3 months
PD-L1
  PD-L1-mediated suppression of human T-cell activation: relieve PD-L1-mediated suppression
Xenograft model
  tumor growth in a xenograft model: inhibits tumor growth

## tremelimumab
Human CTLA-4
  cross-reactivity to related human proteins: no cross-reactivity
Fc receptors
  specific binding to Fc receptors: minimal specific binding
[4]
  induction of natural killer (NK) ADCC activity: does not induce
